Key:
[1] = Radical oxidation of linoleic acid by AAPH (conjugated diene, TBARS); settings: for Formed TBARS / Formed conjugated diene: 37° C., AAPH; for Conjugated diene formation: (%) / TBARS formation: (%): versus system with no cyclotetrasaccharide
Excerpt: As a negative control, a system of PBS with no cyclotetrasaccharide was provided and measured similarly as above. Conjugated diene was quantified by measuring the absorbance of test samples at a wavelength of 234 nm according to the method by Okamura et al., in Journal of Agricultural and Food Chemistry, Vol. 42, page 1,612 (1994). TABRS was quantified by allowing the sampled test specimens to react with thiobarbituric acid and measured for absorbance of the reaction mixture at a wavelength of 532 nm according to the method by Ohgawara et al., in Journal of Lipid Research, Vol. 19, page 1,053 (1978). The quantification of the formed TBARS in test samples was determined with a calibration curve provided in such a manner of diluting 1,1,3,3-tetraethoxypropane with ethanol into 10, 50 and 100 μg/ml dilutes, allowing the dilutes with thiobarbituric acid similarly as the test samples, measuring the absorbance of the resulting mixtures similarly as above, and drawing calibration curve based on the measured absorbances and the amount of TBARS calculated theoretically. The quantification of the formed conjugated diene in the test samples was determined by calculating the absorbances of the samples obtained in this experiment, based on the molar absorbance coefficient of molecules disclosed in Journal of Agricultural and Food Chemistry, Vol. 42, page 1,612 (1994). Tables 4 and 5 show the results on measurement for the formation level of conjugated diene and TBARS, respectively.

[2] = Modification of L-lysine by lipid peroxides (protein carbonyl, OLAARPs); settings: for OLAARPs Formation: (%) / Protein carbonyl Formation: (%): L-lysine, versus no saccharide; for Formed OLAARPs / Formed Protein carbonyl: 37° C., 24 hours
Description: In this experiment, saccharide solutions were prepared to give an equal total saccharide molar concentration in each solution.
As a negative control, PBS was used.
To five milliliters of either of the above saccharide solutions for testing or the negative control was added 10 mg of calf serum albumin (BSA) or L-lysine, followed by dissolving. To each of the resulting solutions was added 25 μg of 2,4-decadienal or malondialdehyde (MDA) as a lipid peroxide, followed by reaction at 37° C. for 24 hours. After completion of the reaction, protein carbonyl and reaction products of oxidized lipids/aminoacids (OLAARPs) formed as aldehyde adducts were quantified on the calorimetric method. […] The formation levels of protein carbonyl and OLAARPs were determined based on the absorbances obtained in this experiment, in terms of the molar absorbance coefficient for each molecule as disclosed in Biochim. Biophys. Acta, No. 1,258, pp. 319-327 (1985).
To each of the resulting mixtures was added 600 μl of 30% trichloroacetic acid, and the mixture was allowed to stand at 0° C. for one hour and centrifuged at 10,000 rpm for 15 min to obtain a precipitate, followed by washing the resulting precipitate four times with two milliliters of ethanol/ethylacetate (1:1), respectively, adding 1.5 ml of 6M-guanidine hydrochloride/20 mM-NaPi/TFA (pH 2.3) to the resultant, allowing the mixture to stand at 37° C. for 30 min, and measuring the absorbance of the resulting mixture at a wavelength of 580 nm, ε=35,000 M^−1 cm^−1. […] To any one of the resulting mixtures was added two milliliters of a 12.5 mM DNPH/2.5 N-hydrochloride solution, and the resulting mixture was allowed to stand at 45° C. for 30 min, followed by measuring the absorbance of the resulting mixture at a wavelength of 580 nm, E=35,000 M^−1 cm^−1.

[3] = Oxidation of rat small intestinal mucosal enzyme solution by AAPH (conjugated diene, TBARS); type: biochemical
Description: As a model system for examining the influence of cyclotetrasaccharide on small intestinal mucous disorders, there was provided a system for examining the influence of cyclotetrasaccharide on the oxidation of a rat small intestinal mucosal enzyme solution by 2,2-azo-bis(2-amidinopropane)-dihydrochloric acid (AAPH).
To two grams of a rat small intestinal mucosal acetone powder, commercialized by Sigma Chemical Company, St. Louis, Mo., USA, was added 20 ml of 50 mM PBS (pH 7.2) and homogenized in ice bath. The mixture was centrifuged at 10,000 rpm for 10 min to obtain a supernatant for use as a rat small intestinal mucosal enzyme solution containing 10 mg/ml of proteins. A half milliliter of the rat small intestinal mucosal enzyme solution, 0.5 ml of a 100 mM AAPH solution, and 0.5 ml of a 200 mM of the crystalline cyclotetrasaccharide pentahydrate prepared in Experiment 1-1 were mixed, followed by incubation at 37° C. for […]. During the incubation, the mixture was sampled at two and six hours after initiating the incubation for quantifying the formed conjugated diene, while the specimens sampled at six hours after initiating the incubation were quantified for the formed TBARS.

[4] = test system: maltase; test: Maltase activity of rat small intestinal mucosal enzyme solution after AAPH oxidation; type: biochemical
Description: One milliliter of the above rat small intestinal mucosal enzyme solution, one milliliter of a 100 mM AAPH solution, one milliliter of a 50 mM phosphate buffer (pH 7.2), and one milliliter of a 400 mM of the crystalline cyclotetrasaccharide pentahydrate prepared in Experiment 1-1 were mixed, incubated at 37° C. for two hours, and measured for the activities of sucrase and maltase. […] To a half milliliter of a maltose solution, which had been prepared by dissolving maltose in 50 mM sodium maleate (pH 6.6) to give a concentration of one percent (%), 0.05 ml of a AAPH-rat small intestinal mucosal enzyme solution. After incubated at 37° C. for 30 min, the mixture was quantified for free glucose by the GOD method. One unit (U) activity of maltase was defined as an enzyme amount that releases two micromoles of glucose per minutes from maltose at 37° C.

[5] = reaction time 6 hr, listed as cyclotetrasaccharide
[6] = 2,4-decadienal, listed as cyclotetrasaccharide
[7] = MDA, listed as cyclotetrasaccharide
[8] = added lipid peroxide 2,4-decadienal
[9] = added lipid peroxide malondialdehyde (MDA)

**Q.** Which “Formed TBARS” value ([1]; reaction time 0 hr) does the source give for OCC1OC2OCC3O[C@H](O[C@H]4C(O)C(CO)OC(OCC5O[C@H](O[C@@H](C1O)C2O)C(O)C(O)[C@@H]5O)C4O)C(O)C(O)[C@@H]3O (stereo partly drawn) [Cyclotetrasaccharide, cyclo{→6}-α-D-glucopyranosyl-(1→3)-α-D-glucopyranosyl-(1→6)-α-D-glucopyranosyl-(1→3)-α-D-glucopyranosyl-(1→}] here?
**A.** 0.00 μg/g-linoleic acid

**Q.** And the Formed conjugated diene ([1]; reaction time 0 hr)?
**A.** 0.27 μg/g-linoleic acid

**Q.** And the “Conjugated diene formation: (%)” value ([1]; reaction time 0 hr)?
**A.** (100) %

**Q.** What about the “Formed TBARS” value ([1]; reaction time 1 hr) of the same molecule?
**A.** 1.52 μg/g-linoleic acid

**Q.** And the Formed conjugated diene ([1]; reaction time 1 hr)?
**A.** 5.16 μg/g-linoleic acid

**Q.** And the “Conjugated diene formation: (%)” value ([1]; reaction time 1 hr)?
**A.** (55) %

**Q.** What about the “TBARS formation: (%)” value ([1]; reaction time 1 hr) of the same molecule?
**A.** (55) %

**Q.** And the “Formed TBARS” value ([1]; reaction time 2 hr)?
**A.** 3.55 μg/g-linoleic acid

**Q.** What about the Formed conjugated diene ([1]; reaction time 2 hr) of the same molecule?
**A.** 9.15 μg/g-linoleic acid

**Q.** And the “Conjugated diene formation: (%)” value ([1]; reaction time 2 hr)?
**A.** (51) %

**Q.** What about the “TBARS formation: (%)” value ([1]; reaction time 2 hr) of the same molecule?
**A.** (35) %

**Q.** What about the “Formed TBARS” value ([1]; reaction time 6 hr) of the same molecule?
**A.** 7.97 μg/g-linoleic acid

**Q.** And the Formed conjugated diene ([1]; reaction time 6 hr)?
**A.** 23.83 μg/g-linoleic acid

**Q.** What about the “Conjugated diene formation: (%)” value ([1]; reaction time 6 hr) of the same molecule?
**A.** (40) %

**Q.** And the “TBARS formation: (%)” value ([1]; reaction time 6 hr, listed as Cyclotetra-saccharide)?
**A.** (30) %

**Q.** What about the “Conjugated diene formation: (%)” value [1, 5] of the same molecule?
**A.** about 40%

**Q.** What about the “TBARS formation: (%)” value [1, 5] of the same molecule?
**A.** about 30%

**Q.** What about the “OLAARPs Formation: (%)” value ([2]; 2,4-decadienal) of the same molecule?
**A.** (67) %

**Q.** What about the “Protein carbonyl Formation: (%)” value ([2]; 2,4-decadienal) of the same molecule?
**A.** (48) %

**Q.** And the “OLAARPs Formation: (%)” value [2, 6]?
**A.** about 67%

**Q.** What about the “Protein carbonyl Formation: (%)” value [2, 6] of the same molecule?
**A.** about 48%

**Q.** What about the “OLAARPs Formation: (%)” value ([2]; MDA) of the same molecule?
**A.** (39) %

**Q.** And the “Protein carbonyl Formation: (%)” value ([2]; MDA)?
**A.** (66) %

**Q.** And the “OLAARPs Formation: (%)” value [2, 7]?
**A.** about 39%

**Q.** What about the “Protein carbonyl Formation: (%)” value [2, 7] of the same molecule?
**A.** about 66%

**Q.** And the “Formed OLAARPs” value [2, 8]?
**A.** 5.44 μmol/g-L-lysine

**Q.** And the “Formed Protein carbonyl” value [2, 8]?
**A.** 6.42 μmol/g-L-lysine

**Q.** And the “Formed OLAARPs” value [2, 9]?
**A.** 3.39 μmol/g-L-lysine

**Q.** And the “Formed Protein carbonyl” value [2, 9]?
**A.** 3.93 μmol/g-L-lysine

**Q.** What about the Formed conjugated diene ([3]; reaction time 0 hr, AAPH, 37° C.) of the same molecule?
**A.** 0.00 μg/mg-protein

**Q.** What about the Formed conjugated diene ([3]; reaction time 2 hr, AAPH, 37° C.) of the same molecule?
**A.** 2.46 μg/mg-protein

**Q.** What about the “Conjugated diene formation: (%)” value ([3]; reaction time 2 hr, versus system with no cyclotetrasaccharide) of the same molecule?
**A.** (15) %

**Q.** What about the Formed conjugated diene ([3]; reaction time 6 hr, AAPH, 37° C.) of the same molecule?
**A.** 61.84 μg/mg-protein

**Q.** And the “Conjugated diene formation: (%)” value ([3]; reaction time 6 hr, versus system with no cyclotetrasaccharide)?
**A.** (60) %

**Q.** And the Formed TBARS ([3]; six hours after initiating the incubation, AAPH, 37° C.)?
**A.** 3.71 µg/mg-protein

**Q.** And the “TBARS formation (%)” value ([3]; six hours, versus system with no cyclotetrasaccharide)?
**A.** (61) %

**Q.** And the Maltase activity ([4]; enzyme solution incubated with AAPH at 37° C. for two hours, with or without cyclotetrasaccharide)?
**A.** 0.0669 u/mg-protein

**Q.** What about the “Maltase Relative residual activity (%)” value ([4]; versus system with no AAPH, 37° C., two hours) of the same molecule?
**A.** (85) %

**Q.** For OC[C@H]1O[C@H](O[C@H]2O[C@H](CO)[C@@H](O)[C@H](O)[C@H]2O)[C@H](O)[C@@H](O)[C@@H]1O [α, α-Trehalose, α, α-trehalose, reference compound], which “OLAARPs Formation: (%)” value ([2]; 2,4-decadienal) is on record?
**A.** (70) %

**Q.** And the “Protein carbonyl Formation: (%)” value ([2]; 2,4-decadienal)?
**A.** (55) %

**Q.** What about the “OLAARPs Formation: (%)” value ([2]; MDA) of the same molecule?
**A.** (38) %

**Q.** What about the “Protein carbonyl Formation: (%)” value ([2]; MDA) of the same molecule?
**A.** (67) %

**Q.** And the “Formed OLAARPs” value [2, 8]?
**A.** 5.72 μmol/g-L-lysine

**Q.** What about the “Formed Protein carbonyl” value [2, 8] of the same molecule?
**A.** 7.47 μmol/g-L-lysine

**Q.** What about the “Formed OLAARPs” value [2, 9] of the same molecule?
**A.** 3.24 μmol/g-L-lysine

**Q.** And the “Formed Protein carbonyl” value [2, 9]?
**A.** 3.99 μmol/g-L-lysine

From patent publication US20050267067A1, “Radical reaction inhibitors, method for inhibition of radical reactions, and use thereof” (priority 2002, published 2005)
